viability, T/C and IC50 data for 14 compounds are collected here from PubChem BioAssay AID1963425 (Molecular Pharmacology Branch, DTP, NCI, 2024).

The structures appear in SMILES notation. Several values for one entry are separate records, joined by “and”; a condition that tells them apart may be missing. Equal entries are not always repeated. Some results are limits rather than exact numbers.

The test system of this test is 323965-272-R-J2-PDC complex spheroid growth, % test/control. The test is described as follows: Anticancer human tumor 323965-272-R-J2-PDC patient-derived pancreatic carcinoma cell line growth inhibition [Asc]. To be noted: for viability, T/C: stronger effect = lower value. How it is done:
Multicellular complex tumor spheroid response to apoptosis pathway targeting inhibitors Alrizomadlin, Pelcitoclax, and Dasminapant in combination with a variety of drugs and investigational agents in selected tumor cell lines
The MDM2 inhibitor alrizomadlin, the Bcl-2/Bcl-xL inhibitor pelcitoclax, and the IAPs inhibitor dasminapant were evaluated both individually and in combination with standard of care and investigational anticancer small molecules within a complex spheroid model of solid tumors. . Complex spheroids include a stromal component modeled by human endothelial cells (HUVEC) and fibroblasts modeled by human mesenchymal stem cells (MSCs). The concentration ranges selected for each drug and investigational agent were based upon clinically achievable concentrations if the clinical Cmax of the agent was known.
Compounds. The drugs and investigational agents: alrizomadlin (APG-115; NSC831270), pelcitoclax (APG-1252; NSC835773), dasminapant (APG-1387;NSC834197), TAK-243 (NSC785004), copanlisib (NSC809693), olaparib (NSC753686), talazoparib (NSC767125), cobimetinib (NSC 768068), eltanexor (KPT-8602, NSC 794443), abemaciclib (NSC 768073), sotorasib (NSC818433), adagrasib (NSC 831453), MRTX-1133 (NSC 836407), Iadademestat (ORY1001, NSC 806812), and RMC-4630 (NSC839698), were obtained from the NCI Developmental Therapeutics Program Chemical Repository. The FDA-approved anticancer drug set is available from the Developmental Therapeutics Program at https://dtp.cancer.gov/organization/dscb/obtaining/available plates.htm. […] The stock solutions were prepared in dimethyl sulfoxide (DMSO, Sigma-Aldrich, St. Louis, MO, cat. D2650) at 800-fold the tested concentration and stored at -70 degrees C prior to their use. All drugs and investigational agents were tested over a range starting from a high concentration at or near the clinical Cmax and decreasing in half-log increments. If the clinical Cmax for an agent had not been determined, the highest concentration tested was 10 microM.
The patient-derived cancer (PDC) cell lines include five colon adenocarcinomas: 186277-243-T-J2-PDC, 616215-338-R-J1-PDC, 439559-082-T-J2-PDC, 463943-066-T-J2-PDC, and 519858-162-T-J1-PDC; three pancreatic carcinomas: 323965-272-R-J2-PDC, 521955-158-R6-J3-PDC, and 521955-158-R2-J5-PDC; two uterine sarcomas: 327498-152-R-J2-PDC and 993429-296-R-J1-PDC; two rhabdomyosarcomas: 755483-174-R-J1-PDC and 772245-204-R-J1-PDC; two soft tissue sarcomas: 126254-015-R-J1-PDC and 494315-158-R-J1-PDC; two malignant fibrous histiocytomas: 317291-083-R-J1-PDC and 596521-263-R-J1-PDC; two breast carcinomas: 171881-019-R-J1-PDC and 885512-296-R-J2-PDC; and one ovarian carcinoma: 6556581-035-R-J-PDC were obtained from the NCI PDMR, (https://pdmr.cancer.gov). The established cell lines HSSY-2 synovial sarcoma (RRID:CVCL 8719), SYO-1 synovial sarcoma (RRID:CVCL_7146), MPNST malignant peripheral neural sheath tumor were obtained from the Sloan Kettering Institute. The following established cell lines were purchased from the American Type Culture Collection (ATCC, Manassas, VA), Sor the received from the NCI repository:, PANC-1 pancreatic carcinoma (CRL-1469, RRID:CVCL_0480), OVCAR-5 ovarian carcinoma (RRID:CVCL_1628), OVCAR-8 ovarian carcinoma (RRID:CVCL_1629), , MCF-7 breast carcinoma (CRL-12584, RRID:CVCL_0031), MDA-MB-231 breast carcinoma (CRL-12532, RRID:CVCL_0062), NCI-H1876 small cell lung carcinoma (CRL-5902, RRID:CVCL_1503), NCI-H510A small cell lung carcinoma (HTB-184, RRID:CVCL_1565), NCI-H1417 (CRL-5869, RRID:CVCL_1469), and NCI-H196 small cell lung carcinoma (CRL-5823, RRID:CVCL_1509). Dr. Peter Houghton (Greehey Children's Cancer Research Institute, University of Texas Health Science Center, San Antonio, TX) provided Rh-18 rhabdomyosarcoma (RRID:CVCL_1659). Pooled donor human umbilical vein endothelial cells (HUVEC, Lonza, cat. CC-2519) and human mesenchymal stem cells (hMSC, Lonza, cat. PT-2501) were purchased from Lonza (Walkersville, MD).
Cell Culture. […]

[1] abbreviates: compound alone, run of 11/07/2022.
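Further: compound exposure lasted 7 days starting three days after spheroid seeding.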
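Wherever viability, T/C is given: 100% = DMSO vehicle control wells with viability set relative to vehicle.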

With `C#Cc1c(F)ccc2cc(O)cc(-c3ncc4c(N5CC6CCC(C5)N6)nc(OCC56CCCN5CC(F)C6)nc4c3F)c12` (stereo not given), the viability, T/C reads like this: (compound 0.0316 µM) 105% and 94.4% and 104%; (compound 0.1 µM) 106% and 91.6% and 102%; (compound 0.316 µM) 103% and 107% and 98.3%; (compound 1 µM) 87.3% and 97.4% and 111%; (compound 3.16 µM) 67.9% and 75.1% and 76.7%; (compound 10 µM) 62.3% and 59.4% and 62.5%. Also, for the setting “curve of compound”, the IC50 is over 10000 nM.

Consider `C=C(F)C(=O)N1CCN(c2nc(OCC3CCCN3C)nc3c2CCN(c2cccc4cccc(Cl)c24)C3)CC1CC#N` (stereo not given), for which the viability, T/C was 56.9% and 67.8% and 73.2% (compound 0.0316 µM); 51.6% and 58.2% and 53.8% (compound 0.1 µM); 47.7% and 60% and 57.1% (compound 0.316 µM); 59% and 70.1% and 72.8% (compound 1 µM); 61.5% and 76.8% and 82.5% (compound 3.16 µM). The IC50 (curve of compound) was 3550 nM and 4840 nM and 5670 nM.

For the compound `C=CC(=O)N1CCN(c2nc(=O)n(-c3c(C)ccnc3C(C)C)c3nc(-c4c(O)cccc4F)c(F)cc23)C(C)C1` (stereo not given), the viability, T/C was 68.7% and 71.9% and 67.7% (compound 0.0316 µM); 56.3% and 59.3% and 71.6% (compound 0.1 µM); 58.4% and 59% and 65.9% (compound 0.316 µM); 57% and 64.3% and 67.5% (compound 1 µM); 66.4% and 72.1% and 67.5% (compound 3.16 µM); 64.8% and 65.6% and 61.1% (compound 10 µM). The IC50 (curve of compound) was over 10000 nM.

In the case of `CCN1C(C(=O)NC23CCC(C(=O)O)(CC2)CC3)C(c2cccc(Cl)c2F)C2(C(=O)Nc3cc(Cl)ccc32)C12CCCCC2` (stereo not given), the viability, T/C runs as follows: (compound 0.00949 µM) 109% [middle of 9 runs]; (compound 0.03 µM) 105% [middle of 9 runs]; (compound 0.0949 µM) 104% [middle of 9 runs]; (compound 0.3 µM) 101% [middle of 9 runs]; (compound 0.949 µM) 110% [middle of 9 runs]; (compound 3 µM) 101% [middle of 9 runs]. In addition, the IC50 by setting is: under setting [1], over 3000 nM; (curve of compound) over 3000 nM.

Turning to `CCN1CCN(Cc2ccc(Nc3ncc(F)c(-c4cc(F)c5nc(C)n(C(C)C)c5c4)n3)nc2)CC1`, the viability, T/C is 114% and 101% and 112% (compound 0.00316 µM); 109% and 98.9% and 112% (compound 0.01 µM); 91.6% and 94.6% and 76.7% (compound 0.0316 µM); 75.6% and 84.4% and 76.1% (compound 0.1 µM); 65.8% and 71.8% and 68% (compound 0.316 µM); 67.9% and 74.1% and 82.3% (compound 1 µM). Further, the IC50 (curve of compound) is over 1000 nM.

For `CNC(C)C(=O)NC1CN(S(=O)(=O)c2cccc(S(=O)(=O)N3CCC4CCC(C(=O)NC(c5ccccc5)c5ccccc5)N4C(=O)C(NC(=O)C(C)NC)C3)c2)CCC2CCC(C(=O)NC(c3ccccc3)c3ccccc3)N2C1=O` (stereo not given), the viability, T/C was 109% [middle of 9 runs] (compound 0.01 µM), 106% [middle of 9 runs] (compound 0.1 µM) and 100% [middle of 9 runs] (compound 0.316 µM). The IC50 by setting is: (compound alone, run of 11/15/2022) over 1000 nM; (curve of compound) over 1000 nM.

On to `COc1c(OCCCN2CCOCC2)ccc2c3n(c(=NC(=O)c4cnc(N)nc4)nc12)CCN3`, for which the viability, T/C is 100% and 85.6% and 103% (compound 0.00316 µM); 99.3% and 80.7% and 93% (compound 0.01 µM); 79.6% and 65.5% and 71.6% (compound 0.0316 µM); 49.5% and 56.1% and 55.9% (compound 0.1 µM); 32.8% and 41.2% and 33.7% (compound 0.316 µM); 30.5% and 33.6% and 25.3% (compound 1 µM). The IC50 (curve of compound) is 154 nM and 119 nM and 92.1 nM.

Regarding `Cc1c(S(C)(=O)=O)c(-c2cc(F)cc(N3CCN(c4ccc(NS(=O)(=O)c5ccc(NC(CCN6CCC(C(=O)OCCCP(=O)(O)O)CC6)CSc6ccccc6)c(S(=O)(=O)C(F)(F)F)c5)cc4)CC3)c2)c(-c2ccc(Cl)cc2)n1C(C)C` (stereo not given), the viability, T/C (compound 0.0316 µM) was 107% [middle of 7 runs]; the viability, T/C (compound 0.1 µM) is 107% [middle of 7 runs]; the viability, T/C (compound 0.316 µM) was 98.3% [middle of 7 runs]; the viability, T/C (compound 3.16 µM) is 84.5% [middle of 7 runs]; the viability, T/C (compound 10 µM) was 76.9% [middle of 7 runs]. For the same compound, the IC50 under setting [1] is over 10000 nM.

As to `Cc1nc(N2CCC3(CC2)COC(C)C3N)c(CO)nc1Sc1ccnc(N)c1Cl` (stereo not given), the viability, T/C is, setting by setting: (compound 0.00949 µM) 102% and 96% and 110%; (compound 0.03 µM) 83.6% and 82.4% and 93.1%; (compound 0.0949 µM) 78.5% and 71.7% and 79.6%; (compound 0.3 µM) 63.5% and 73.1% and 66%; (compound 0.949 µM) 54.4% (2×) and 55%; (compound 3 µM) 50.1% and 45.6% and 49.1%. Moreover, the IC50 (curve of compound) was 2620 nM and 1920 nM and 2500 nM.

For the compound `Cn1ncnc1[C@H]1c2n[nH]c(=O)c3cc(F)cc(c23)N[C@@H]1c1ccc(F)cc1`, the viability, T/C runs as follows: (compound 0.000316 µM) 103% and 109% and 106%; (compound 0.001 µM) 96.5% and 103% and 99.3%; (compound 0.00316 µM) 103% and 104% and 99.2%; (compound 0.01 µM) 96.4% (2×) and 120%; (compound 0.0316 µM) 103% and 95.3% and 106%; (compound 0.1 µM) 89.7% and 95.6% and 94.9%. In addition, where the note is “curve of compound”, the IC50 was over 100 nM.

On to `NC(=O)C(=Cn1cnc(-c2cc(C(F)(F)F)cc(C(F)(F)F)c2)n1)c1cncnc1`, for which the viability, T/C (compound 0.000949 µM) is 105% and 108% and 73.8%; the viability, T/C (compound 0.003 µM) was 91.3% and 106% and 96.3%; the viability, T/C (compound 0.00949 µM) was 101% and 105% and 88.4%; the viability, T/C (compound 0.03 µM) is 93.7% and 89% and 82.1%; the viability, T/C (compound 0.0949 µM) was 86.4% and 80.2% and 77.3%; the viability, T/C (compound 0.3 µM) is 57.8% and 57% and 75.2%. The IC50 (curve of compound) is over 300 nM.

Turning to `NC1CCC(NC2CC2c2ccccc2)CC1` (stereo not given), the viability, T/C (compound 0.000316 µM) was 97.5% and 97% and 94.2%; the viability, T/C (compound 0.001 µM) is 105% and 97.8% and 90%; the viability, T/C (compound 0.00316 µM) is 102% and 98.4% and 89.8%; the viability, T/C (compound 0.01 µM) was 101% and 97.8% and 90.7%; the viability, T/C (compound 0.0316 µM) is 120% and 103% and 94%; the viability, T/C (compound 0.1 µM) was 110% and 90.2% and 92.5%. For the same compound, the IC50 (curve of compound) was over 100 nM.

For the compound `O=C(c1cc(Cc2n[nH]c(=O)c3ccccc23)ccc1F)N1CCN(C(=O)C2CC2)CC1`, the viability, T/C is, setting by setting: (compound 0.0316 µM) 105% and 66.7% and 98.1%; (compound 0.1 µM) 86.6% and 102% and 89.1%; (compound 0.316 µM) 101% and 116% and 79%; (compound 1 µM) 104% and 108% and 117%; (compound 3.16 µM) 98.2% and 110% and 94.2%; (compound 10 µM) 87.7% and 91.1% and 80.9%. For the same compound, the IC50 (curve of compound) is over 10000 nM.

As to `O=C(c1ccc(F)c(F)c1Nc1ccc(I)cc1F)N1CC(O)([C@@H]2CCCCN2)C1`, the viability, T/C runs as follows: (compound 0.00316 µM) 106% and 101% and 88.5%; (compound 0.01 µM) 82.5% and 96.7% and 83.5%; (compound 0.0316 µM) 87% and 76.1% and 79%; (compound 0.1 µM) 62.9% and 59.7% and 52.5%; (compound 0.316 µM) 34.9% and 34.5% and 31.9%; (compound 1 µM) 19.6% and 20.1% and 18.8%. The IC50 (curve of compound) was 176 nM and 149 nM and 123 nM.
